The target of assay [1] is T1, Dihydroorotate dehydrogenase (fumarate) (Saccharomyces cerevisiae (strain ATCC 204508 / S288c), UniProt P28272).
T1 sequence (P28272 whole entry): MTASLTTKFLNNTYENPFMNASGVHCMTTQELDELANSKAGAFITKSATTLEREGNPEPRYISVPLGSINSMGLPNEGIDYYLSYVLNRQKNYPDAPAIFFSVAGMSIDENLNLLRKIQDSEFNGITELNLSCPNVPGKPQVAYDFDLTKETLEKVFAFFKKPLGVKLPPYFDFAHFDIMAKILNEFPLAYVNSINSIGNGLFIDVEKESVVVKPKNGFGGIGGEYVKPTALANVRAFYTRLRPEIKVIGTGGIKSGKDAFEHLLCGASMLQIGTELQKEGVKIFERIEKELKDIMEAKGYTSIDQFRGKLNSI
Kind of assay: Enzymatic Assays. From the text: (§1) Type 2 DHODH activity was monitored with either the direct assay measuring the formation of orotate or via a chromogen reduction assay using DCIP. Although the extinction coefficient and absorption wavelength are preferable for the chromogen reduction assay, the inorganic electron acceptor DCIP can be utilized by DHODH as the final electron acceptor in lieu of CoQn when the endogenous substrate is at a low concentration. As such, the direct assay was used to measure the binding affinity of pfDHODH to CoQD and L-DHO. The enzymatic reaction was performed by varying the L-DHO concentration (1-400 μM) or CoQD concentration (1-200 μM) while keeping the other substrate constant and in excess.

Assay [2] has as its target T2, Dihydroorotate dehydrogenase (quinone), mitochondrial [100-517] (Plasmodium berghei (strain Anka), UniProt A0A509AEH5).
T2 construct: 100-517
T2 sequence (A0A509AEH5 whole entry): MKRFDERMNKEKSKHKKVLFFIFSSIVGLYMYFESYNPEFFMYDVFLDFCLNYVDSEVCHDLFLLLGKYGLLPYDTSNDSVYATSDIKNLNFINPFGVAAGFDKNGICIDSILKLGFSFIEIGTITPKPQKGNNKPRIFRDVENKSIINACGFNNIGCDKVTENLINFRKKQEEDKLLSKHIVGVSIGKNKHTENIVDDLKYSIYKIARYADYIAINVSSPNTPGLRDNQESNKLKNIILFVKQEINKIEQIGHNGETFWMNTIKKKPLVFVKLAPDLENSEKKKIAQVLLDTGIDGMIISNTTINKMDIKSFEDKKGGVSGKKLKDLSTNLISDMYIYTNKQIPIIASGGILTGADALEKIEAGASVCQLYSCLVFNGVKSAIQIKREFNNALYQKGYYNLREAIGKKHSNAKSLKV
Kind of assay: Enzymatic Assays.
From the text: as §1

Where only a bound is given, the exact number is not on record here.

What is called IC50 is the concentration that gives 50% inhibition. Lower therefore signals inhibition by little substance. Consider `Cc1ccccc1/C=C/c1cc(O)c2ccccc2n1` [US8703811, 2], for which the concentration for half-maximal inhibition (IC50) in assay [1] was > 10 µM.

On to `Fc1cc(I)ccc1Nc1ccnc2cc(Cl)ccc12` [US8703811, 4], for which, in assay [2], the IC50 was > 10 µM.

(Values after BindingDB's records for patent US8703811 (Genzyme, 2014).)
